The text below walks through data of US9732093B2, “FLAP modulators” (JANSSEN PHARMACEUTICA NV, priority 2013, dated 2017).

Counter-ions that a name gives are not always drawn. Like-named read-outs stand apart in the source and are kept apart here.

The subject of assay [1] is leukotriene pathway in human whole blood. The experiment in a line: Human whole blood assay (LTB4 levels after A23187 stimulation). It counts as cell-based. The method, then: The ability of the compounds of the present invention to treat a FLAP-mediated disease and/or disorder, or associated symptoms or complications thereof, was determined using the following procedures. Binding assay data represent the average value obtained from two different assay plates, with samples run in duplicate on each plate. Human whole blood assay data represent a single replicate on an assay plate using whole blood from at least one healthy donor.
An in vitro cellular assay was performed using human whole blood collected in heparin-containing tubes, which was used to test the ability of compounds to modulate the leukotriene pathway in human whole blood. The blood was diluted 1:1 in RPMI medium, pre-incubated for 15 min at 37° Celsius with test compounds at various concentrations, and then stimulated with calcium ionophore, A23187 (7 μg/mL), for 30 min at 37° Celsius. The samples were then centrifuged and plasma was removed. The plasma was diluted in assay buffer and LTB4 levels were measured using a commercial kit (Enzo Life Sciences). The concentration of each compound that was required for half-maximal inhibition (modulation) of recombinant enzyme activity (IC50) was calculated by a 4-parameter equation using the program GraphPad Prism (GraphPad software).

Another assay addresses human FLAP (Homo sapiens (Human), UniProt P20292). The experiment in a line: FLAP binding assay (HTRF format). A digest of the protocol:
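Reported data take the mean of two different plates carrying duplicate samples and use the HTRF ratio as the measured signal.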
A general note: In TR-FRET formats the signal depends on donor and acceptor labels being close together.

[2] abbreviates: human whole blood diluted 1:1 in RPMI, A23187 stimulation, Table 6 (additional runs).
[3] abbreviates: human FLAP wild type membranes, HTRF format, Table 6 (additional runs).
[4] abbreviates: human FLAP-containing membranes, HTRF ligand 25 nM, 2 h, average of two plates, duplicates, read-out: FLAP Binding wild type HTRF Ki.
The mark [5] stands for this setting: Homo sapiens, blood diluted 1:1 in RPMI, 15 min pre-incubation, A23187 7 μg/mL for 30 min at 37° Celsius, plasma LTB4.

Chain of human FLAP (P20292 whole entry): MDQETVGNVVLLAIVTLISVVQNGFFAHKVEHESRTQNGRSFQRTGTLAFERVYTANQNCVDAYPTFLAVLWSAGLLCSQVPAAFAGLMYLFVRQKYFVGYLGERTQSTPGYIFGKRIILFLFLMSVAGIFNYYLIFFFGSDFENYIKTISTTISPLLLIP

Turning to “6-Cyclobutyl-2-fluoro-3-(5H-pyrrolo[2,3-b]pyrazin-2-yl)phenol [Example 176]”, the IC50 (in general, the concentration that inhibits the measured activity by half) in assay [1] (blood diluted 1:1 in RPMI, 15 min pre-incubation, A23187 7 μg/mL for 30 min at 37° Celsius, plasma LTB4) was determined as 892 nM; in assay [1] (setting [2]) it was 1300 nM. Also, the Ki (as a rule, the dissociation constant of the complex between target and ligand, obtained from inhibition or displacement) at human FLAP (setting [3]) is about 75 nM.
Compound `Fc1c(-c2cnc3[nH]ccc3n2)ccc(C2CCC2)c1OCc1ccccc1` [Example 178, 2-[3-(Benzyloxy)-4-cyclobutyl-2-fluorophenyl]-5H-pyrrolo[2.3-b]pyrazine] came in with an IC50 in assay [1] (setting [2]) of 771 nM. Moreover, the Ki on human FLAP (setting [4]) is 354 nM.
Regarding `N#Cc1cccnc1COc1c(C2CCC2)ccc(-c2cnc(N)cn2)c1F` [Example 286, 2-{[3-(5-Aminopyrazin-2-yl)-6-cyclobutyl-2-fluorophenoxy]methyl)}pyridine-3-carbonitrile trifluoroacetic acid salt], it took 1190 nM to reach half-maximal inhibition in assay [1] (setting [2]) (IC50). This compound also registered a Ki at human FLAP (setting [3]) of 81.7 nM.
For `Nc1cnc(-c2ccc(C3CCC3)c(Oc3ccnc(N)c3)c2F)cn1` [Example 347, 5-{3-[(2-Aminopyridin-4-yl)oxy]-4-cyclobutyl-2-fluorophenyl}pyrazin-2-amine], half-maximal inhibition in assay [1] (setting [2]) (IC50) required 396 nM. The same compound displayed a Ki at human FLAP (setting [3]) of 47.6 nM.
`Nc1ncc(-c2ccc(C3CCC3)c(O)c2F)cn1` [Intermediate E, 3-(2-Aminopyrimidin-5-yl)-6-cyclobutyl-2-fluorophenol]: the IC50 in assay [1] (setting [5]) and in assay [1] (setting [2]) was 1100 nM in each case. Moreover, at human FLAP (setting [3]), the Ki stood at 99.5 nM.
With `Nc1ncc(-c2ccc(C3CCCCC3)c(Oc3ncccn3)c2F)cn1` [Example 343, 5-[4-Cyclohexyl-2-fluoro-3-(pyrimidin-2-yloxy)phenyl]pyrimidin-2-amine], the IC50 in assay [1] (setting [2]) turned out to be 14.4 nM. Moreover, the Ki on human FLAP (setting [3]) came out at 5.4 nM.
On the same counts, the results for `Nc1cnc(-c2ccc(C3CCC3)c(Oc3cncnc3)c2F)cn1` [Example 349, 5-[4-Cyclobutyl-2-fluoro-3-(pyrimidin-5-yloxy)phenyl]pyrazin-2-amine] are over 1000 nM and 31 nM.
On the same counts, the results for `Nc1cnc(-c2ccc(C3CCC3)c(OCc3ncccn3)c2F)cn1` [Example 339, 5-[4-Cyclobutyl-2-fluoro-3-(pyrimidin-2-ylmethoxy)phenyl]pyrazin-2-amine] are 1640 nM and 108 nM.
On to `Cc1nc(COc2c(C3CCC3)ccc(-c3cnc(N)cn3)c2F)cs1` [Example 287, 5-{4-Cyclobutyl-2-fluoro-3-[(2-methyl-1,3-thiazol-4-yl)methoxy]phenyl}pyrazin-2-amine trifluoroacetic acid salt], for which, in assay [1] (setting [2]), the IC50 was over 1000 nM. The compound also returned a Ki at human FLAP (setting [3]) of 17.6 nM.
In assay [1] (setting [2]), `CC(C)(C)c1ccc(-c2cnc3[nH]ccc3c2)c(F)c1Oc1ncccn1` [Example 351, 5-[4-tert-Butyl-2-fluoro-3-(pyrimidin-2-yloxy)phenyl]-1H-pyrrolo[2.3-b]pyridine] registered an IC50 of 124 nM. In addition, on human FLAP (setting [3]), the Ki was 54.4 nM.
`Nc1cnc(-c2ccc(C3CCCC3)c(Oc3ncccn3)c2F)cn1` [Example 337, 5-[4-Cyclopentyl-2-fluoro-3-(pyrimidin-2-yloxy)phenyl]pyrazin-2-amine]: in assay [1] (setting [2]), the IC50 turned out to be 162 nM. Also, the Ki at human FLAP (setting [3]) was 14.8 nM.
As for `Nc1cnc(-c2ccc(C3CCCCC3)c(O)c2F)cn1` [Example 345, 3-(5-Aminopyrazin-2-yl)-6-cyclohexyl-2-fluorophenol], in assay [1] (setting [2]), 15.1 nM corresponded to half-maximal inhibition (IC50). Moreover, at human FLAP (setting [3]), the Ki came to 14.2 nM.
Regarding `CC(C)(C)c1ccc(-c2cnc(N)cn2)c(F)c1O` [Intermediate G, 3-(5-Aminopyrazin-2-yl)-6-tert-butyl-2-fluorophenol], the IC50 in assay [1] (setting [5]) and in assay [1] (setting [2]) was 575 nM each time. For the same compound, at human FLAP (setting [4]), the Ki amounted to 77.9 nM.
